Data published in US8383637B2, “2-amino-quinazoline derivatives useful as inhibitors of β-secretase (BACE)” (Jansssen Pharmaceutica N.V., priority 2004, dated 2013).

Molecular target: T1, β-secretase(BACE) (Homo sapiens, UniProt P56817)
T1 construct: purchased Panvera
Assay: BACE FS1% Inhibition Assay
Assay type: biochemical
Conditions: FS1 substrate
Description: BACE FS1% Inhibition Assay The following reagents were used in this assay: sodium acetate, PEG8000 (Sigma), DMSO, HEPES, FS1 substrate [[…]] […] The FS1-substrate stock solution was prepared in DMSO as a 10 mg/mL solution. The FS1-substrate working solution was prepared by diluting the 10 mg/mL stock solution with substrate assay buffer to a final concentration of 300 μg/mL. The β-secretase (BACE) working solution was prepared by diluting a 0.83 mg/mL BACE stock solution with enzyme assay buffer to a final concentration of 4 μg/mL. Test compounds were dissolved in DMSO to 10 mM. […] The screening procedure for this assay was as follows: 15 μL of BACE working solution was pipetted into each well of a 96-well plate. To each well was then pipetted 2 μL of test compound at the selected concentration. Test compound and BACE were then mixed with a pipettor and incubated for 20 min at room temperature. To each well was then added 10 μL of the FS1 substrate working solution. The plates were then incubated for 1 hour at room temperature. […] The procedure for the blank was as follows. 15 μL of assay buffer was pipetted into each well to be used as a blank control. To each well was then added 2 μL of vehicle and 10 μL of FS1-substrate working solution. The plates were then incubated for 1 hour at room temperature. […] The procedure for the positive control was as follows: 15 μL of BACE working solution was pipetted into each well to be used as a positive control. To each well was then pipetted 2 μL of vehicle. Vehicle and BACE were then mixed with a pipettor and incubated for 20 min at room temperature. To each well was then added 10 μL of the FS1 substrate working solution. The plates were then incubated for 1 hour at room temperature. […] For test compounds, % inhibition was determined at each concentration as follows: [formula]

T1 sequence (P56817 46-501): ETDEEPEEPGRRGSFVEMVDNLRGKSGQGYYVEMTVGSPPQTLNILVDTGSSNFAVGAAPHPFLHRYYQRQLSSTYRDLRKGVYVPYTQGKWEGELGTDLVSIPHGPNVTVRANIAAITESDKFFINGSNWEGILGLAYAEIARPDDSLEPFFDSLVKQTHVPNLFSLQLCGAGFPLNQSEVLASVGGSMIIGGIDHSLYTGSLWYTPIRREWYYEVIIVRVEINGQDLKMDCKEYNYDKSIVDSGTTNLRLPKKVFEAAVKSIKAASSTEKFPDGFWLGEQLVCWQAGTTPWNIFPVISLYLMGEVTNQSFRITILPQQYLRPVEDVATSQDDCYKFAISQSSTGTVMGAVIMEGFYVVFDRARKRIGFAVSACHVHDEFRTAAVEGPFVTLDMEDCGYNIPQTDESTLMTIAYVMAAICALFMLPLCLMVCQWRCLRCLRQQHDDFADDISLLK

% Inhibition (FS) 0.3 μM (0.3 μM test compound) [%] | % Inhibition (FS) 1 μM (1 μM test compound) [%] | % Inhibition (FS) 3 μM (3 μM test compound) [%] | % Inhibition (FS) 10 μM (10 μM test compound) [%] | SMILES | other results
 |  |  |  | COC(=O)C1CCCC(N(C)C(=O)CCC(C2CCCCC2)N2Cc3cc(Oc4ccccc4)ccc3N=C2N)C1 (mixture of isomers) [Compound 777] | % Inhibition (FS) (0.3 μM test compound): 38%; % Inhibition (FS) (1 μM test compound): 97%; % Inhibition (FS) (3 μM test compound): 123%
<30 | <30 | 54 |  | COc1ccc(-c2ccc3c(c2)CN(C(CCC(=O)N(C)C2CCCCC2)C2CCCCC2)C(N)=N3)cc1 (racemic) [Compound 226] | 
69 | 107 | 118 |  | CCC(c1cccc(C(=O)N(C)C2CCCCC2)c1)N1Cc2cc(-c3ccccc3OC)ccc2N=C1N (racemic) [Compound 395] | 
 |  | 68 | 117 | CCCC(CCCC(=O)NC1CCCCC1)N1Cc2cc(Oc3ccccc3)ccc2N=C1N (stereo not shown) [Compound 91] | 
 |  | 40 | 105 | NC1=Nc2ccc(Oc3ccccc3)cc2CN1CCCCNC(=O)C1CCCCC1 [Compound 115] | 
 |  | 39 | 81 | NC1=Nc2ccc(Oc3ccccc3)cc2CN1CCCCNC(=O)C1CCCC1 [Compound 116] | 
 |  |  |  | CN(C(=O)c1ccc2c(c1)C(N1Cc3cc(Oc4ccccc4)ccc3N=C1N)c1ccccc1-2)C1CCCCC1 (stereo not shown) [Compound 118] | % Inhibition (FS) 3 μM (3 μM test compound, 3 µM): 48%; % Inhibition (FS) 10 μM (10 μM test compound, 10 µM): 91%
 |  | 42 | 75 | NC1=Nc2ccc(Oc3ccccc3)cc2CN1C1CCN(C(=O)C2CCCCC2)C1 (stereo not shown) [Compound 119] | 
 |  | <30 | 34 | NC1=Nc2ccc(Oc3ccccc3)cc2CN1C1CCN(C(=O)C2CCCC2)C1 (stereo not shown) [Compound 120] | 
 |  | 56 | 67 | NC1=Nc2ccc(Oc3ccccc3)cc2CN1C1c2ccccc2-c2cccc(C(=O)N(C3CCCCC3)C3CCCCC3)c21 (stereo not shown) [Compound 124] | 
 |  |  |  | CN(C(=O)c1ccc2c(c1)C(N1Cc3cc(Oc4ccccc4)ccc3N=C1N)c1ccccc1-2)C1CCCCC1 (stereo not shown) [Compound 125, 9-(2-Amino-6-phenoxy-4H-quinazolin-3-yl)-9H-fluorene-2-carboxylic acid cyclohexyl-methyl-amide] | inhibition at 3 µM (3 μM test compound, read-out: % Inhibition (FS) 3 μM): 42%; inhibition at 10 µM (10 μM test compound, read-out: % Inhibition (FS) 10 μM): 80%
 |  | 97 | 108 | CCCC(CCC(=O)NC1CCCCCC1)N1Cc2cc(Oc3ccccc3)ccc2N=C1N (stereo not shown) [Compound 128] | 
 |  | 54 | 118 | NC1=Nc2ccc(Oc3ccccc3)cc2CN1C(c1ccccc1)c1cccc(C(=O)N(C2CCCCC2)C2CCCCC2)c1 (stereo not shown) [Compound 132] | 
 |  | <30 | 61 | NC1=Nc2ccc(Oc3ccccc3)cc2CN1CCNC(=O)C1CC1c1ccccc1 (stereo not shown) [Compound 139] | 
 |  | <30 | 38 | CCCCCCCCCC(=O)NCCN1Cc2cc(Oc3ccccc3)ccc2N=C1N [Compound 142] | 
 |  | <30 | 32 | NC1=Nc2ccc(Oc3ccccc3)cc2CN1CCCNC(=O)C1CC1 [Compound 143] | 
 |  | 39 | 59 | NC1=Nc2ccc(Oc3ccccc3)cc2CN1CCCNC(=O)C1CCC1 [Compound 144] | 
 |  | <30 | 37 | CN(C(=O)c1ccc2c(c1)C(N1Cc3cc(Oc4ccccc4)ccc3N=C1N)CC2)C1CCCCC1 (stereo not shown) [Compound 145] | 
 |  | <30 | 39 | COc1ccc2c(c1)C(CC(=O)N(C)C1CCCCC1)CC2N1Cc2cc(Oc3ccccc3)ccc2N=C1N (stereo not shown) [Compound 146] | 
 |  | <30 | 71 | NC1=Nc2ccc(Oc3ccccc3)cc2CN1C1c2ccccc2-c2c(C(=O)N(C3CCCCC3)C3CCCCC3)cccc21 (stereo not shown) [Compound 147] | 
<30 | <30 | 90 |  | CCCCCC(CCC(=O)NC1CCCCCC1)N1Cc2cc(Oc3ccccc3)ccc2N=C1N (stereo not shown) [Compound 150] | 
 |  | <30 | 49 | NC1=Nc2ccc(Oc3ccccc3)cc2CN1CCNC(=O)CCc1ccccc1 [Compound 155] | 

% Inhibition (FS) 0.3 μM (0.3 μM test compound) [%] | % Inhibition (FS) 1 μM (1 μM test compound) [%] | % Inhibition (FS) 3 μM (3 μM test compound) [%] | % Inhibition (FS) 10 μM (10 μM test compound) [%] | SMILES | other results
 |  | <30 | 40 | CC(C)(C)c1ccc(C(=O)NCCN2Cc3cc(Oc4ccccc4)ccc3N=C2N)cc1 [Compound 156] | 
 |  | <30 | 50 | CCCCc1ccc(C(=O)NCCN2Cc3cc(Oc4ccccc4)ccc3N=C2N)cc1 [Compound 157] | 
<30 | <30 | <30 |  | CN(C(=O)c1cccc(CN2Cc3cc(-c4cn[nH]c4)ccc3N=C2N)c1)C1CCCCC1 [Compound 161] | 
<30 | <30 | <30 |  | CN(C(=O)c1cccc(CN2Cc3cc(-c4ccc(C(N)=O)cc4)ccc3N=C2N)c1)C1CCCCC1 [Compound 162] | 
<30 | 33 | <30 |  | CN(C(=O)c1cccc(CN2Cc3cc(-c4cccc(C(=O)O)c4)ccc3N=C2N)c1)C1CCCCC1 [Compound 163] | 
<30 | 37 | 74 |  | CC(=O)Nc1cccc(-c2ccc3c(c2)CN(Cc2cccc(C(=O)N(C)C4CCCCC4)c2)C(N)=N3)c1 [Compound 166] | 
<30 | <30 | <30 |  | CN(C(=O)c1cccc(CN2Cc3cc(-c4ccncc4)ccc3N=C2N)c1)C1CCCCC1 [Compound 168] | 
<30 | 31 | 42 |  | CN(C(=O)c1cccc(CN2Cc3cc(-c4cccc(-c5ccccc5)c4)ccc3N=C2N)c1)C1CCCCC1 [Compound 171] | 
<30 | <30 | <30 |  | CN(C)Cc1ccccc1-c1ccc2c(c1)CN(Cc1cccc(C(=O)N(C)C3CCCCC3)c1)C(N)=N2 [Compound 172] | 
<30 | <30 | 37 |  | CN(C(=O)c1cccc(CN2Cc3cc(-c4ccc5[nH]ccc5c4)ccc3N=C2N)c1)C1CCCCC1 [Compound 175] | 
<30 | <30 | 77 |  | NC1=Nc2ccc(Oc3ccccc3)cc2CN1CCC(=O)N(C1CCCCC1)C1CCCCC1 [Compound 180] | 
<30 | <30 | 32 |  | CC(C)N(C(=O)CCN1Cc2cc(Oc3ccccc3)ccc2N=C1N)C(C)C [Compound 181] | 
<30 | <30 | 38 |  | CCCCCC1CCC(C(=O)NCCN2Cc3cc(Oc4ccccc4)ccc3N=C2N)CC1 (stereo not shown) [Compound 182] | 
<30 | <30 | 31 |  | CC(C)(C)C1CCC(C(=O)NCCN2Cc3cc(Oc4ccccc4)ccc3N=C2N)CC1 (stereo not shown) [Compound 184] | 
<30 | <30 | 39 |  | CC1CCC(N(C(=O)c2cccc(CN3Cc4cc(Oc5ccccc5)ccc4N=C3N)c2)C2CCC(C)CC2)CC1 (stereo not shown) [Compound 187] | 
<30 | <30 | <30 |  | NC1=Nc2ccc(Oc3ccccc3)cc2CN1Cc1cccc(C(=O)NCCc2ccc(S(N)(=O)=O)cc2)c1 [Compound 188] | 
<30 | <30 | <30 |  | CN(C)c1ccc(C(=O)NCCN2Cc3cc(Oc4ccccc4)ccc3N=C2N)cc1 [Compound 189] | 
51 | 86 | 101 |  | CC(C)CC(=O)NCCN1Cc2cc(Oc3ccccc3)ccc2N=C1N [Compound 190] | 
<30 | 46 | 88 |  | CC1CCC(C(=O)NCCN2Cc3cc(Oc4ccccc4)ccc3N=C2N)CC1 (stereo not shown) [Compound 191] | 
<30 | 34 | 67 |  | NC1=Nc2ccc(Oc3ccccc3)cc2CN1Cc1cccc(C(=O)N2CCC3CCCCC3C2)c1 (stereo not shown) [Compound 193] | 
<30 | 42 | 38 |  | CCCCCC1CC2(C(=O)NCCN3Cc4cc(Oc5ccccc5)ccc4N=C3N)CCC1CC2 (stereo not shown) [Compound 194] | 
